According to ChEMBL document CHEMBL5505979, “Novel aminothiazoximone-corbelled ethoxycarbonylpyrimidones with antibiofilm activity to conquer Gram-negative bacteria through potential multitargeting effects” (Eur J Med Chem, 2024):
Converted amounts (≈) assume the structure as drawn. The source made the active and inactive calls. The calls are words filed in the database; no cut-off is given here.

Experiments:
Pseudomonas aeruginosa [1] = assay: Anti-bacterial activity against Pseudomonas aeruginosa ST235 assessed as inhibition of bacterial growth; assay type: functional; conditions: Pseudomonas aeruginosa, ST235; read-out: MIC
Acinetobacter baumannii [2] = assay: Anti-bacterial activity against Acinetobacter baumannii R674 assessed as inhibition of bacterial growth; assay type: functional
Escherichia coli [3] = assay: Anti-bacterial activity against Escherichia coli ATCC 25922 assessed as inhibition of bacterial growth measured after 6-7 th passages at sub-MIC concentration by multiple resistance study; assay type: functional, organism-based
Escherichia coli [4] = assay: Anti-bacterial activity against Escherichia coli ATCC 25922 assessed as growth inhibition by measuring optical density measured at 1/2 times of MIC of norfloxacin by Checkerboard assay (reference value: 0.129); assay type: functional
Staphylococcus aureus [5] = assay: Anti-bacterial activity against Staphylococcus aureus ATCC 25923 assessed as inhibition of bacterial growth; assay type: functional; conditions: Staphylococcus aureus, ATCC 25923; read-out: MIC
Acinetobacter baumannii [6] = assay: Anti-bacterial activity against Acinetobacter baumannii assessed as growth inhibition by measuring optical density measured at 2 time of MIC (reference value: 0.156); assay type: functional
Pseudomonas aeruginosa [7] = assay: Anti-bacterial activity against Pseudomonas aeruginosa ATCC 15442 assessed as inhibition of bacterial growth; assay type: functional; conditions: Pseudomonas aeruginosa, ATCC 15442; read-out: MIC
Staphylococcus aureus [8] = assay: Anti-bacterial activity against Staphylococcus aureus CMCC (B) 26001 assessed as inhibition of bacterial growth; assay type: functional
Escherichia coli [9] = assay: Drug resistance, ratio of MIC for Escherichia coli ATCC 25922 after 20 passages exposure to MIC for Escherichia coli ATCC 25922 after first exposure; assay type: functional
Escherichia coli [10] = assay: Anti-bacterial activity against Escherichia coli ATCC 25922 assessed as growth inhibition by measuring optical density measured at 1/4 times of MIC of norfloxacin by Checkerboard assay (reference value: 0.129); assay type: functional
Staphylococcus aureus [11] = assay: Anti-bacterial activity against Staphylococcus aureus ATCC 6538 assessed as inhibition of bacterial growth; assay type: functional
Pseudomonas aeruginosa [12] = assay: Anti-bacterial activity against Pseudomonas aeruginosa ATCC 27853 assessed as inhibition of bacterial growth; assay type: functional; conditions: Pseudomonas aeruginosa, ATCC 27853; read-out: MIC
Staphylococcus aureus [13] = assay: Anti-bacterial activity against Staphylococcus aureus ATCC 29213 assessed as inhibition of bacterial growth; assay type: functional; conditions: Staphylococcus aureus, ATCC 29213; read-out: MIC
Acinetobacter baumannii [14] = assay: Anti-bacterial activity against Acinetobacter baumannii assessed as growth inhibition by measuring optical density measured at 1/8 time of MIC (reference value: 0.156); assay type: functional
Escherichia coli [15] = assay: Anti-bacterial activity against Escherichia coli JM109 assessed as inhibition of bacterial growth; assay type: functional
Escherichia coli [16] = assay: Anti-bacterial activity against Escherichia coli ATCC 25922 assessed as growth inhibition by measuring optical density measured at 2 times of MIC of norfloxacin by Checkerboard assay (reference value: 0.129); assay type: functional
Pseudomonas aeruginosa [17] = assay: Anti-bacterial activity against Pseudomonas aeruginosa CMCC (B) 10104 assessed as inhibition of bacterial growth; assay type: functional; conditions: Pseudomonas aeruginosa, CMCC (B) 10104; read-out: MIC
Staphylococcus aureus [18] = assay: Anti-bacterial activity against methicillin-resistant Staphylococcus aureus ATCC 43300 assessed as inhibition of bacterial growth; assay type: functional; conditions: Staphylococcus aureus, ATCC 43300; read-out: MIC
Acinetobacter baumannii [19] = assay: Drug resistance, ratio of MIC for Acinetobacter baumannii after 20 passages exposure to MIC for Acinetobacter baumannii after first exposure; assay type: functional
Acinetobacter baumannii [20] = assay: Anti-bacterial activity against Acinetobacter baumannii assessed as growth inhibition by measuring optical density measured at 1 time of MIC (reference value: 0.156); assay type: functional
Acinetobacter baumannii [21] = assay: Anti-bacterial activity against Acinetobacter baumannii assessed as inhibition of bacterial growth measured after 6-7 th passages at sub-MIC concentration by multiple resistance study; assay type: functional, organism-based
Staphylococcus aureus [22] = assay: Anti-bacterial activity against methicillin-resistant Staphylococcus aureus N315 assessed as inhibition of bacterial growth; assay type: functional; conditions: Staphylococcus aureus, N315; read-out: MIC
Escherichia coli [23] = assay: Anti-bacterial activity against Escherichia coli ATCC 25922 assessed as inhibition of bacterial growth; assay type: functional
Pseudomonas aeruginosa [24] = assay: Anti-bacterial activity against Pseudomonas aeruginosa ATCC 9027 assessed as inhibition of bacterial growth; assay type: functional
Staphylococcus aureus [25] = assay: Anti-bacterial activity against Staphylococcus aureus ATCC 12600 assessed as inhibition of bacterial growth; assay type: functional; conditions: Staphylococcus aureus, ATCC 12600; read-out: MIC
Staphylococcus aureus [26] = assay: Anti-bacterial activity against Staphylococcus aureus CMCC (B) 26003 assessed as inhibition of bacterial growth; assay type: functional
Acinetobacter baumannii [27] = assay: Anti-bacterial activity against Acinetobacter baumannii assessed as growth inhibition by measuring optical density measured at 1/4 time of MIC (reference value: 0.156); assay type: functional
Enterococcus faecalis = assay: Anti-bacterial activity against Enterococcus faecalis V583 assessed as inhibition of bacterial growth; assay type: functional
Acinetobacter baumannii [28] = assay: Anti-bacterial activity against Acinetobacter baumannii assessed as fractional inhibitory concentration measured upto 9 hrs in presence of ethyl(E)-6-((4-(2-(2-aminothiazol-4-yl)-2-(methoxyimino)acetyl)piperazin-1-yl)methyl)-4-(2-butyl-4-chloro-1H-imidazole-5-yl)-2-oxo-1,2,3,4-tetrahydropyrimidine-5-carboxylate; assay type: functional
Klebsiella pneumoniae = assay: Anti-bacterial activity against Klebsiella pneumoniae KPN325 assessed as inhibition of bacterial growth; assay type: functional; conditions: Klebsiella pneumoniae, KPN325; read-out: MIC
Escherichia coli [29] = assay: Anti-bacterial activity against Escherichia coli ATCC 25922 assessed as fractional inhibitory concentration measured upto 9 hrs in presence of ethyl(E)-6-((4-(2-(2-aminothiazol-4-yl)-2-(methoxyimino)acetyl)piperazin-1-yl)methyl)-4-(2-butyl-4-chloro-1H-imidazole-5-yl)-2-oxo-1,2,3,4-tetrahydropyrimidine-5-carboxylate; assay type: functional
Escherichia coli [30] = assay: Anti-bacterial activity against Escherichia coli ATCC 25922 assessed as growth inhibition by measuring optical density measured at 1 times of MIC of norfloxacin by Checkerboard assay (reference value: 0.129); assay type: functional
Acinetobacter baumannii [31] = assay: Anti-bacterial activity against Acinetobacter baumannii assessed as growth inhibition by measuring optical density measured at 1/2 time of MIC (reference value: 0.156); assay type: functional
Staphylococcus aureus [32] = assay: Anti-bacterial activity against Staphylococcus aureus ATCC 1708 assessed as inhibition of bacterial growth; assay type: functional; conditions: Staphylococcus aureus, ATCC 1708; read-out: MIC
Escherichia coli [33] = assay: Anti-bacterial activity against Escherichia coli ATCC 25922 assessed as growth inhibition by measuring optical density measured at 1/8 times of MIC of norfloxacin by Checkerboard assay (reference value: 0.129); assay type: functional
Candida parapsilosis = assay: Anti-fungal activity against Candida parapsilosis assessed as inhibition of fungal growth; assay type: functional; conditions: Lodderomyces parapsilosis; read-out: MIC
Candida albicans [34] = assay: Anti-fungal activity against Candida albicans 90023 assessed as inhibition of fungal growth; assay type: functional
Candida albicans [35] = assay: Anti-fungal activity against Candida albicans assessed as inhibition of fungal growth; assay type: functional; conditions: Candida albicans; read-out: MIC
Candida tropicalis = assay: Anti-fungal activity against Candida tropicalis assessed as inhibition of fungal growth; assay type: functional; conditions: Candida tropicalis; read-out: MIC

Question: What does the source list for `CCn1cc(C(=O)O)c(=O)c2cc(F)c(N3CCNCC3)cc21` [NORFLOXACIN]?
Answer: MIC (Pseudomonas aeruginosa [1]): 6 µM (≈ 1.92 µg/mL); MIC (Acinetobacter baumannii [2]): 13 µM (≈ 4.15 µg/mL); Activity (Escherichia coli [3]): inactive; OD (Escherichia coli [4]): 0.128; MIC (Staphylococcus aureus [5]): 6 µM (≈ 1.92 µg/mL); OD (Acinetobacter baumannii [6]): 0.136; MIC (Pseudomonas aeruginosa [7]): 6 µM (≈ 1.92 µg/mL); MIC (Staphylococcus aureus [8]): 6 µM (≈ 1.92 µg/mL); Ratio (Escherichia coli [9]): 16; OD (Escherichia coli [10]): 0.128; MIC (Staphylococcus aureus [11]): 6 µM (≈ 1.92 µg/mL); MIC (Pseudomonas aeruginosa [12]): 25 µM (≈ 7.98 µg/mL); MIC (Staphylococcus aureus [13]): 6 µM (≈ 1.92 µg/mL); OD (Acinetobacter baumannii [14]): 0.155; MIC (Escherichia coli [15]): 25 µM (≈ 7.98 µg/mL); OD (Escherichia coli [16]): 0.128; MIC (Pseudomonas aeruginosa [17]): 6 µM (≈ 1.92 µg/mL); MIC (Staphylococcus aureus [18]): 3 µM (≈ 0.958 µg/mL); Ratio (Acinetobacter baumannii [19]): 32; OD (Acinetobacter baumannii [20]): 0.138; Activity (Acinetobacter baumannii [21]): inactive; MIC (Staphylococcus aureus [22]): 6 µM (≈ 1.92 µg/mL); MIC (Escherichia coli [23]): 13 µM (≈ 4.15 µg/mL); MIC (Pseudomonas aeruginosa [24]): 6 µM (≈ 1.92 µg/mL); MIC (Staphylococcus aureus [25]): 6 µM (≈ 1.92 µg/mL); MIC (Staphylococcus aureus [26]): 6 µM (≈ 1.92 µg/mL); OD (Acinetobacter baumannii [27]): 0.142; MIC (Enterococcus faecalis): 6 µM (≈ 1.92 µg/mL); FIC (Acinetobacter baumannii [28]): 0.25; MIC (Klebsiella pneumoniae): 3 µM (≈ 0.958 µg/mL); FIC (Escherichia coli [29]): 0.25; OD (Escherichia coli [30]): 0.129; OD (Acinetobacter baumannii [31]): 0.141; MIC (Staphylococcus aureus [32]): 3 µM (≈ 0.958 µg/mL); OD (Escherichia coli [33]): 0.125

Question: Which results are given for `CCOC(=O)C1=C(CN2CCN(C(=O)/C(=N/OC)c3csc(N)n3)CC2)NC(=O)NC1c1ccc(O)c(OC)c1` (stereo not drawn)?
Answer: MIC (Pseudomonas aeruginosa [1]): 48 µM (≈ 27.5 µg/mL); MIC (Acinetobacter baumannii [2]): 48 µM (≈ 27.5 µg/mL); MIC (Candida parapsilosis): 444 µM (≈ 255 µg/mL); MIC (Candida albicans [34]): 444 µM (≈ 255 µg/mL); MIC (Staphylococcus aureus [5]): 56 µM (≈ 32.1 µg/mL); MIC (Candida albicans [35]): 444 µM (≈ 255 µg/mL); MIC (Pseudomonas aeruginosa [7]): 48 µM (≈ 27.5 µg/mL); MIC (Staphylococcus aureus [8]): 56 µM (≈ 32.1 µg/mL); MIC (Staphylococcus aureus [11]): 112 µM (≈ 64.2 µg/mL); MIC (Pseudomonas aeruginosa [12]): 48 µM (≈ 27.5 µg/mL); MIC (Staphylococcus aureus [13]): 56 µM (≈ 32.1 µg/mL); MIC (Escherichia coli [15]): 95 µM (≈ 54.5 µg/mL); MIC (Pseudomonas aeruginosa [17]): 95 µM (≈ 54.5 µg/mL); MIC (Staphylococcus aureus [18]): 28 µM (≈ 16.1 µg/mL); MIC (Staphylococcus aureus [22]): 112 µM (≈ 64.2 µg/mL); MIC (Candida tropicalis): 444 µM (≈ 255 µg/mL); MIC (Escherichia coli [23]): 48 µM (≈ 27.5 µg/mL); MIC (Pseudomonas aeruginosa [24]): 95 µM (≈ 54.5 µg/mL); MIC (Staphylococcus aureus [25]): 112 µM (≈ 64.2 µg/mL); MIC (Staphylococcus aureus [26]): 112 µM (≈ 64.2 µg/mL); MIC (Enterococcus faecalis): 14 µM (≈ 8.03 µg/mL); MIC (Klebsiella pneumoniae): 48 µM (≈ 27.5 µg/mL); MIC (Staphylococcus aureus [32]): 112 µM (≈ 64.2 µg/mL)
